Measurements as given in patent publication US12528814B2, “Bifunctional degraders of interleukin-1 receptor-associated kinases and therapeutic use thereof” (NURIX THERAPEUTICS, INC., priority 2020, dated 2026).
Where two headings read alike, the source gives them in different places.

How the values were obtained:
[1] = target: T1, IRAK4 (Homo sapiens (Human), UniProt Q9NWZ3); test: IRAK4 Degradation HiBiT Assay; conditions: HiBiT-tagged Jurkat cells, 4 hrs; for Dmax: Jurkat; for DC50: read-out: Cellular IRAK4 HiBiT: DC50
Target sequence in this assay (Q9NWZ3 whole entry): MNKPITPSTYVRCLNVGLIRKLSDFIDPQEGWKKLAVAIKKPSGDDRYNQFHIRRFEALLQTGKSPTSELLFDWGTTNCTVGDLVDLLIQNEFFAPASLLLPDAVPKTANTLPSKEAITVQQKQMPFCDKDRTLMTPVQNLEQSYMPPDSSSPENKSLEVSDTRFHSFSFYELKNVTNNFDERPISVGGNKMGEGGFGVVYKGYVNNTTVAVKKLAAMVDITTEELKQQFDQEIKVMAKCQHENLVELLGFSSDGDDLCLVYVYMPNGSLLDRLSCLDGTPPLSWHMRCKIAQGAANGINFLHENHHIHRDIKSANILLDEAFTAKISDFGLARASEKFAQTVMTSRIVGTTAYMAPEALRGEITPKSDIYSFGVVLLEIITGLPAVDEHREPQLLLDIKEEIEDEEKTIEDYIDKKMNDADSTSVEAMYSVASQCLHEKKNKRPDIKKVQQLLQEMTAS

[2] = target: T1, IRAK4; test: IRAK4 Biochemical HTRF Kinase Assay; conditions: read-out: IRAK4 HTRF biochemical: IC50
Experimental: IRAK4 Biochemical HTRF Kinase Assay
The binding capacities of certain bifunctional compounds of Formula (I) were determined using the CisBio HTRF KinEASE STK S1 Kit (#62ST1PEB, contains 5× Kinase buffer, 1× Detection Buffer, anti-phospho-serine/threonine-cryptate, Streptavidin-XL665, and STK-S1), which measures the phosphorylation of a biotinylated peptide substrate by IRAK4, according to the manufacturer's protocol. […] 2 μl of a reaction solution containing 5 μM STK-S1, 10 mM ATP, and 10 mM MgCl2 were added to each well to a final volume of 10 μl. Assay controls include wells containing kinase with no compound (DMSO only) and wells containing no kinase and no compound (DMSO only). The reactions were allowed to proceed at ambient temperature for 90 minutes. […] The plates were incubated for 60 minutes at ambient temperature and then read on an Envision Multilabel Reader (PerkinElmer). […] For IC50 determination, the compounds were tested at sixteen concentrations in duplicate and curve-fitting was performed by non-linear regression analysis using GraphPad Priam.
Target sequence in this assay (Q9NWZ3 whole entry, species assumed): as the sequence (Q9NWZ3 whole entry) above

[3] = read-out: Cellular IRAK4 HiBiT: Dmax, Table 5, multiple runs
[4] = read-out: Cellular IRAK4 HiBiT: Dmax, Table 4

Dmax [1, 3] | DC50 ([1]; Table 5, multiple runs) | IC50 ([2]; Table 5, multiple runs) | Dmax [1, 4] | DC50 ([1]; Table 4) | IC50 ([2]; Table 4) | SMILES
113% | 65.9 nM | 1 nM | – | – | – | CNc1cc(-c2ccc3cc(C#N)cnn23)ncc1-c1nnc([C@H]2CC[C@H](N(C)C(=O)C[C@H](NC(=O)[C@@H]3C[C@@H](O)CN3C(=O)[C@@H](NC(=O)C3(F)CC3)C(C)(C)C)c3ccc(-c4scnc4C)cc3)CC2)s1 [Example 163, (2S,4R)—N—((S)-3-(((1r,4S)-4-(5-(6-(3-cyanopyrrolo[1,2-b]pyridazin-7-yl)-4-(methylamino)pyridin-3-yl)-1,3,4-thiadiazol-2-yl)cyclohexyl)(methyl)amino)-1-(4-(4-methylthiazol-5-yl)phenyl)-3-oxopropyl)-1-((S)-2-(1-fluorocyclopropane-1-carboxamido)-3,3-dimethylbutanoyl)-4-hydroxypyrrolidine-2-carboxamide]
44% | 99.7 nM | 2.6 nM | – | – | – | CNc1cc(-c2ccc3cc(C#N)cnn23)ncc1-c1nnc(C23CCC(NC(=O)CCCCCCCNc4ccc5c(c4)C(=O)N(C4CCC(=O)NC4=O)C5=O)(CC2)CC3)s1 (stereo not shown) [Example 107, N-(4-(5-(6-(3-cyanopyrrolo[1,2-b]pyridazin-7-yl)-4-(methylamino)pyridin-3-yl)-1,3,4-thiadiazol-2-yl)bicyclo[2.2.2]octan-1-yl)-8-((2-(2,6-dioxopiperidin-3-yl)-1,3-dioxoisoindolin-5-yl)amino)octanamide]
– | > 970 nM | 2.1 nM | – | – | – | CC(C)Nc1cc(-c2ccc3cc(C#N)cnn23)ncc1-c1nnc(N2CCN(CC3CCN(Cc4ccc5c(c4)C(=O)N(C4CCC(=O)NC4=O)C5=O)CC3)CC2)s1 (stereo not shown) [Example 85, 7-(5-(5-(4-((1-((2-(2,6-dioxopiperidin-3-yl)-1,3-dioxoisoindolin-5-yl)methyl)piperidin-4-yl)methyl)piperazin-1-yl)-1,3,4-thiadiazol-2-yl)-4-(isopropylamino)pyridin-2-yl)pyrrolo[1,2-b]pyridazine-3-carbonitrile]
81% | 64.9 nM | 1.8 nM | – | – | – | CC(C)Nc1cc(-c2ccc3cc(C#N)cnn23)ncc1-c1nnc(N2CCC3(CCN(Cc4ccc5c(c4)C(=O)N(C4CCC(=O)NC4=O)C5=O)CC3)CC2)s1 (stereo not shown) [Example 81, 7-(5-(5-(9-((2-(2,6-dioxopiperidin-3-yl)-1,3-dioxoisoindolin-5-yl)methyl)-3,9-diazaspiro[5.5]undecan-3-yl)-1,3,4-thiadiazol-2-yl)-4-(isopropylamino)pyridin-2-yl)pyrrolo[1,2-b]pyridazine-3-carbonitrile]
70% | 15.8 nM | 2.4 nM | – | – | – | CC(C)Nc1cc(-c2ccc3cc(C#N)cnn23)ncc1-c1nnc(N2CCC3(CCN(C(=O)c4ccc5c(c4)C(=O)N(C4CCC(=O)NC4=O)C5)CC3)CC2)s1 (stereo not shown) [Example 87, 7-(5-(5-(9-(2-(2,6-dioxopiperidin-3-yl)-3-oxoisoindoline-5-carbonyl)-3,9-diazaspiro[5.5]undecan-3-yl)-1,3,4-thiadiazol-2-yl)-4-(isopropylamino)pyridin-2-yl)pyrrolo[1,2-b]pyridazine-3-carbonitrile]
– | > 6980 nM | 0.9 nM | – | – | – | CNc1cc(-c2ccc3cc(C#N)cnn23)ncc1-c1nnc([C@H]2CC[C@H](NC(=O)CCC(=O)N[C@H](C(=O)N3C[C@@H](O)C[C@H]3C(=O)NCc3ccc(-c4scnc4C)cc3)C(C)(C)C)CC2)s1 [Example 151, N1-((1r,4S)-4-(5-(6-(3-cyanopyrrolo[1,2-b]pyridazin-7-yl)-4-(methylamino)pyridin-3-yl)-1,3,4-thiadiazol-2-yl)cyclohexyl)-N4—((S)-1-((2S,4S)-4-hydroxy-2-((4-(4-methylthiazol-5-yl)benzyl)carbamoyl)pyrrolidin-1-yl)-3,3-dimethyl-1-oxobutan-2-yl)succinamide]
104% | 32 nM | 0.8 nM | – | – | – | CNc1cc(-c2ccc3cc(C#N)cnn23)ncc1-c1nnc([C@H]2CC[C@H](N(C)C(=O)C3CCN(c4ccc5c(c4)C(=O)N(C4CCC(=O)NC4=O)C5=O)CC3)CC2)s1 (stereo partly shown) [Example 169, N-((1r,4r)-4-(5-(6-(3-cyanopyrrolo[1,2-b]pyridazin-7-yl)-4-(methylamino)pyridin-3-yl)-1,3,4-thiadiazol-2-yl)cyclohexyl)-1-(2-(2,6-dioxopiperidin-3-yl)-1,3-dioxoisoindolin-5-yl)-N-methylpiperidine-4-carboxamide]
60% | 46.3 nM | 2.2 nM | – | – | – | CNc1cc(-c2ccc3cc(C#N)cnn23)ncc1-c1nnc([C@H]2CC[C@@H](NC(=O)CCOCCNc3cccc4c3C(=O)N(C3CCC(=O)NC3=O)C4=O)CC2)s1 (stereo partly shown) [Example 116, N-((1s,4s)-4-(5-(6-(3-cyanopyrrolo[1,2-b]pyridazin-7-yl)-4-(methylamino)pyridin-3-yl)-1,3,4-thiadiazol-2-yl)cyclohexyl)-3-(2-((2-(2,6-dioxopiperidin-3-yl)-1,3-dioxoisoindolin-4-yl)amino)ethoxy)propanamide]

More lines, now with the values behind:

SMILES | Dmax [1, 3] | DC50 ([1]; Table 5, multiple runs) | IC50 ([2]; Table 5, multiple runs) | Dmax [1, 4] | DC50 ([1]; Table 4) | IC50 ([2]; Table 4)
CNc1cc(-c2ccc3cc(C#N)cnn23)ncc1-c1nnc([C@H]2C[C@H](NC(=O)C[C@H](NC(=O)[C@@H]3C[C@@H](O)CN3C(=O)[C@@H](NC(=O)C3(F)CC3)C(C)(C)C)c3ccc(-c4scnc4C)cc3)C2)s1 [Example 183, (2S,4R)—N—((S)-3-(((1r,3S)-3-(5-(6-(3-cyanopyrrolo[1,2-b]pyridazin-7-yl)-4-(methylamino)pyridin-3-yl)-1,3,4-thiadiazol-2-yl)cyclobutyl)amino)-1-(4-(4-methylthiazol-5-yl)phenyl)-3-oxopropyl)-1-((S)-2-(1-fluorocyclopropane-1-carboxamido)-3,3-dimethylbutanoyl)-4-hydroxypyrrolidine-2-carboxamide] | 111% | 222 nM | 2.3 nM | – | – | –
CC(C)Nc1cc(-c2ccc3cc(C#N)cnn23)ncc1-c1nnc(N2CCC(NC(=O)C3CCN(c4ccc5c(c4)C(=O)N(C4CCC(=O)NC4=O)C5=O)CC3)CC2)s1 (stereo not shown) [Example 25, N-(1-(5-(6-(3-cyanopyrrolo[1,2-b]pyridazin-7-yl)-4-(isopropylamino)pyridin-3-yl)-1,3,4-thiadiazol-2-yl)piperidin-4-yl)-1-(2-(2,6-dioxopiperidin-3-yl)-1,3-dioxoisoindolin-5-yl)piperidine-4-carboxamide] | 77% | 160 nM | 7.8 nM | 69% | 188 nM | 7.8 nM
Cc1ncsc1-c1ccc(CNC(=O)[C@@H]2C[C@@H](O)CN2C(=O)[C@@H](NC(=O)C2(F)CC2)C(C)(C)C)c(OCCCCCCCC(=O)N2CCN(c3nnc(-c4cnc(-c5ccc6cc(C#N)cnn56)cc4NC(C)C)s3)CC2)c1 [Example 43, (2S,4R)—N-(2-((8-(4-(5-(6-(3-cyanopyrrolo[1,2-b]pyridazin-7-yl)-4-(isopropylamino)pyridin-3-yl)-1,3,4-thiadiazol-2-yl)piperazin-1-yl)-8-oxooctyl)oxy)-4-(4-methylthiazol-5-yl)benzyl)-1-((S)-2-(1-fluorocyclopropane-1-carboxamido)-3,3-dimethylbutanoyl)-4-hydroxypyrrolidine-2-carboxamide] | 67% | 1090 nM | 24 nM | 78% | 1170 nM | 24.1 nM
CN[C@@H](C)C(=O)N[C@H](C(=O)N1CCC[C@H]1c1nc(C(=O)c2cccc(OCCOCCC(=O)N3CCN(c4nnc(-c5cnc(-c6ccc7cc(C#N)cnn67)cc5NC(C)C)s4)CC3)c2)cs1)C1CCCCC1 [Example 50, (S)—N—((S)-2-((S)-2-(4-(3-(2-(3-(4-(5-(6-(3-cyanopyrrolo[1,2-b]pyridazin-7-yl)-4-(isopropylamino)pyridin-3-yl)-1,3,4-thiadiazol-2-yl)piperazin-1-yl)-3-oxopropoxy)ethoxy)benzoyl)thiazol-2-yl)pyrrolidin-1-yl)-1-cyclohexyl-2-oxoethyl)-2-(methylamino)propanamide] | 67% | 197 nM | 3.2 nM | 67% | 197 nM | 3.1 nM
CNc1cc(-c2ccc3cc(C#N)cnn23)ncc1-c1nnc(N2CC3(CCN(C(=O)C4CCN(c5ccc6c(c5)C(=O)N(C5CCC(=O)NC5=O)C6=O)CC4)CC3)C2)s1 (stereo not shown) [Example 176, 7-(5-(5-(7-(1-(2-(2,6-dioxopiperidin-3-yl)-1,3-dioxoisoindolin-5-yl)piperidine-4-carbonyl)-2,7-diazaspiro[3.5]nonan-2-yl)-1,3,4-thiadiazol-2-yl)-4-(methylamino)pyridin-2-yl)pyrrolo[1,2-b]pyridazine-3-carbonitrile] | 105% | 31.5 nM | 0.5 nM | – | – | –
CC(C)Nc1cc(-c2ccc3cc(C#N)cnn23)ncc1-c1nnc(N2CCN(CCCc3cccc4c3CN(C3CCC(=O)NC3=O)C4=O)CC2)s1 (stereo not shown) [Example 29, 7-(5-(5-(4-(3-(2-(2,6-dioxopiperidin-3-yl)-1-oxoisoindolin-4-yl)propyl)piperazin-1-yl)-1,3,4-thiadiazol-2-yl)-4-(isopropylamino)pyridin-2-yl)pyrrolo[1,2-b]pyridazine-3-carbonitrile] | 90% | 136 nM | 1.1 nM | 90% | 135 nM | 0.8 nM
